Source: US11517581B2, “Zika virus protease inhibitors and methods of use thereof” (priority 2017, dated 2022)
In brackets after ≈: the same amount, converted by molar mass.

Legend:
ZIKV NS2B-NS3 protease [1] = target: T1, ZIKV NS2B-NS3 protease (Zika virus, UniProt A0A024B7W1, DEL1468-1502); assay: Enzyme kinetic experiments, mode of protease inhibition; assay type: biochemical; conditions: 5 nM protease, substrate 0-100 μM, drug 0-1000 μg/ml; global R^2=0.99
Protocol: Hydrogen bonds and hydrophobic contact areas are represented by dashed lines and the two brackets, respectively. The main interacting residues are labeled. The dashed lines represent bonds between hydrogen and acceptor atoms that are involved. […] In the assay, concentration of ZIKV NS2B-NS3 protease was fixed as 5 nM, while different concentrations of substrate (100, 50, 25, 12.5, 6.25, 3.125 and 0 μM) were added to plot the enzyme kinetic curves. Four concentrations of the drug (1000, 250, 62.5 and 0 μg/ml) were tested individually against the different concentrations of substrate. The experiments were repeated twice for confirmation. The data were analyzed for mode of inhibition by GraphPad Prism 6 in the module of enzyme kinetics. R^2>0.95 was considered as statistically significant.
To explore the mode of protease inhibition, enzyme kinetic experiments were performed in the presence or absence of the drug.

ZIKV = assay: Plaque reduction assay in Vero cells; assay type: cell-based, Zika virus
Protocol: Plaque reduction assay was performed as we previously described with slight modifications (Chan et al., 2017a). Briefly, Vero cells were seeded at 2×10^5 cells/well in 24-well tissue culture plates on the day before carrying out the assay. After 24 h of incubation, 20-40 plaque-forming units (PFU) of ZIKV were added to the cell monolayer with or without the addition of drug compounds and the plates were further incubated for 1 h at 37° C. in 5% CO2 before removal of unbound viral particles by aspiration of the media and washing once with MEM. Monolayers were then overlaid with media containing 1% low melting agarose (Cambrex Corporation, New Jersey, USA) in MEM and appropriate concentrations of drug compounds, inverted and incubated as above for another 96 h. The wells were then fixed with 10% formaldehyde (BDH, Merck, Darmstadt, Germany) overnight. After removal of the agarose plugs, the monolayers were stained with 0.7% crystal violet (BDH, Merck) and the plaques were counted. The percentage of plaque inhibition relative to the control (i.e. without the addition of compound) wells were determined for each drug compound concentration.

ZIKV NS2B-NS3 protease [2] = target: T1, ZIKV NS2B-NS3 protease; assay type: biochemical; conditions: 10 μM substrate, 5 nM protease

T1 sequence (A0A024B7W1 1502-1672, added parts left off, stated change not applied): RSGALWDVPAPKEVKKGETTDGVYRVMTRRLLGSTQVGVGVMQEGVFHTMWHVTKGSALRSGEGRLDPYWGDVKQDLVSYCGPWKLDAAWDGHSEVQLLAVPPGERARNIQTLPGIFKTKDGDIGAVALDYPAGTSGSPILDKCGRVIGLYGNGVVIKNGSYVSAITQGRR

## CO[C@@H]1[C@@H](OC(N)=O)[C@@H](O)[C@H](Oc2ccc3c(O)c(NC(=O)c4ccc(O)c(CC=C(C)C)c4)c(=O)oc3c2C)OC1(C)C [Novobiocin]
ZIKV NS2B-NS3 protease [1]
  Mode of protease inhibition: competitive
ZIKV; Zika virus, Vero cells
  IC50: 15.21 ± 0.14 µg/mL (≈ 24.8 µM)
ZIKV; at concentrations ≥50.00 μg/ml
  Plaque reduction: 100%
ZIKV NS2B-NS3 protease [2]
  Effect of increasing drug concentrations on protease activity: dose-dependent reduction in protease activity
